# Experiments:
# Settings in all cases: compound 10.0 µM
# AKT1 (human) = AKT1 (human) (UniProt P31749)
# CDK11B (human) = CDK11B (human) (UniProt P21127)
# SRPK2 (human) = SRPK2 (human) (UniProt P78362)
# CSNK1A1L (human) = CSNK1A1L (human) (UniProt Q8N752)
# PHKG2 (human) = PHKG2 (human) (UniProt P15735)
# RET (human) = RET (human) (UniProt P07949)
# TNK1 (human) = TNK1 (human) (UniProt Q13470)
# FLT3 (human) = FLT3 (human) (UniProt P36888)
# CDK19 (human) = CDK19 (human) (UniProt Q9BWU1)
# CDK3 (human) = CDK3 (human) (UniProt Q00526)
# ACVR1 (human) = ACVR1 (human) (UniProt Q04771)
# Sequence of ACVR1 (human) (Q04771 whole entry, looked up): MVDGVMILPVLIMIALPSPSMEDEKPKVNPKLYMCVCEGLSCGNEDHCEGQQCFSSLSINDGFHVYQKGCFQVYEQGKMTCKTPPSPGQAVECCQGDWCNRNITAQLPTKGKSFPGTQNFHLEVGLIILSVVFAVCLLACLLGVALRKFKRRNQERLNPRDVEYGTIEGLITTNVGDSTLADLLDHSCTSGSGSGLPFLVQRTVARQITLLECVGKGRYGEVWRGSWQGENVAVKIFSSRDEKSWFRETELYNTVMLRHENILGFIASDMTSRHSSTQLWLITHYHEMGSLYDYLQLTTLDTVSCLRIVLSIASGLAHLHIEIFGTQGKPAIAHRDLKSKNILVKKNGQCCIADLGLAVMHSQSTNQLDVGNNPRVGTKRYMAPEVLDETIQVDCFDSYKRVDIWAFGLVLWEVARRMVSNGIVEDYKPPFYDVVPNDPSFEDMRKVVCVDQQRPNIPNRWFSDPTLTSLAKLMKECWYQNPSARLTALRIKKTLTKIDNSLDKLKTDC
# PIK3C2B (human) = PIK3C2B (human) (UniProt O00750)
# PRPF4B (human) = PRPF4B (human) (UniProt Q13523)
# Sequence of PRPF4B (human) (Q13523 whole entry, looked up): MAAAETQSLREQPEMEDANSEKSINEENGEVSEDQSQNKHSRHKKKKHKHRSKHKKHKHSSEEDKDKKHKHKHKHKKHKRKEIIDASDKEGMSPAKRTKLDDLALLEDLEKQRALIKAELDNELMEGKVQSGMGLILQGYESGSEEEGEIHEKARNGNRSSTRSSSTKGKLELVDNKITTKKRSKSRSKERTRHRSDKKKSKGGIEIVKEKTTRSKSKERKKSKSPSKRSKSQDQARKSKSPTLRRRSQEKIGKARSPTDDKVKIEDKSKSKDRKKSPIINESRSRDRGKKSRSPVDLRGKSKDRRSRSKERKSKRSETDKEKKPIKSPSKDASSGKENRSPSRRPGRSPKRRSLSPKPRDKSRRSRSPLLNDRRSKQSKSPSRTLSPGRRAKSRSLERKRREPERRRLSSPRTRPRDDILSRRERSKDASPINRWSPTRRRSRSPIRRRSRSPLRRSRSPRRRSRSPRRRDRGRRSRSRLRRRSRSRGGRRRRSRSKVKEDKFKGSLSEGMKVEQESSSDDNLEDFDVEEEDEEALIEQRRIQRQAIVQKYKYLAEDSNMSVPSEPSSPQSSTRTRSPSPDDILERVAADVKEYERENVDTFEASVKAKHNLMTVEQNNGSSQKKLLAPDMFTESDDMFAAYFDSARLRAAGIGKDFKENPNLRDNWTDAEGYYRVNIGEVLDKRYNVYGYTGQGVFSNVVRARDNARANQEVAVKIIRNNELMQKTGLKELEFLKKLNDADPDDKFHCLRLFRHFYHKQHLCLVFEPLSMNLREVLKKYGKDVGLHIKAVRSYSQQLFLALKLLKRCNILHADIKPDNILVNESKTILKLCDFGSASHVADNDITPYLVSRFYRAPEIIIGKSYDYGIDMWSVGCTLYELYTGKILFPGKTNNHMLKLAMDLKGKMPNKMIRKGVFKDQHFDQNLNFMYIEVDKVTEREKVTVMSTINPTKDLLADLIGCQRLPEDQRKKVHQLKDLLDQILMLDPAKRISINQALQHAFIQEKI
# DYRK2 (human) = DYRK2 (human) (UniProt Q92630)
# MAP2K5 (human) = MAP2K5 (human) (UniProt Q13163)
# Sequence of MAP2K5 (human) (Q13163 whole entry, looked up): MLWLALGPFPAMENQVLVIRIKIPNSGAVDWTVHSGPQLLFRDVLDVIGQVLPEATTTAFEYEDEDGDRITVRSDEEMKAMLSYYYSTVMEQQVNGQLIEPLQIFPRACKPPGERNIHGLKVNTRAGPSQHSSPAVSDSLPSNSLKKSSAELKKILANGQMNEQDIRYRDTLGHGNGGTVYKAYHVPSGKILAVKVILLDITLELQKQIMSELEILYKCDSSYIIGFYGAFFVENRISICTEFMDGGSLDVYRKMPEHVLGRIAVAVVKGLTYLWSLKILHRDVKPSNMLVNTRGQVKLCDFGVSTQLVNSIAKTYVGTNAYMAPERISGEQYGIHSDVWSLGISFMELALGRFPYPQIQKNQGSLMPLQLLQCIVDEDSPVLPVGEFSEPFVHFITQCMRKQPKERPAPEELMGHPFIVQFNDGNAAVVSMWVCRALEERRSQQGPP
# CDK9 (human) = CDK9 (human) (UniProt P50750)
# Sequence of CDK9 (human) (P50750 whole entry, looked up): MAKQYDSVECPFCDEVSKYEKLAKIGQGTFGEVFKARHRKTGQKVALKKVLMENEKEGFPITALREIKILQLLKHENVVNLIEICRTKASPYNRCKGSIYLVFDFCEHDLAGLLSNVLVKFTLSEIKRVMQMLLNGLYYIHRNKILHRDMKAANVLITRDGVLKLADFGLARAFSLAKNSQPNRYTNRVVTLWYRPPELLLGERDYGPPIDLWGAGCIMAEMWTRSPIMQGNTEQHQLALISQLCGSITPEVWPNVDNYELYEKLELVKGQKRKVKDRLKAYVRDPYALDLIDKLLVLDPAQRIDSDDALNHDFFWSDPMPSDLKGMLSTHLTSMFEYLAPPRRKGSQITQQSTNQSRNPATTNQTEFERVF
# RIOK3 (human) = RIOK3 (human) (UniProt O14730)
# LATS1 (human) = LATS1 (human) (UniProt O95835)
# ZAP70 (human) = ZAP70 (human) (UniProt P43403)
# PHKG1 (human) = PHKG1 (human) (UniProt Q16816)
# ERBB2 (human) = ERBB2 (human) (UniProt P04626)
# CDK18 (human) = CDK18 (human) (UniProt Q07002)
# Sequence of CDK18 (human) (Q07002 whole entry, looked up): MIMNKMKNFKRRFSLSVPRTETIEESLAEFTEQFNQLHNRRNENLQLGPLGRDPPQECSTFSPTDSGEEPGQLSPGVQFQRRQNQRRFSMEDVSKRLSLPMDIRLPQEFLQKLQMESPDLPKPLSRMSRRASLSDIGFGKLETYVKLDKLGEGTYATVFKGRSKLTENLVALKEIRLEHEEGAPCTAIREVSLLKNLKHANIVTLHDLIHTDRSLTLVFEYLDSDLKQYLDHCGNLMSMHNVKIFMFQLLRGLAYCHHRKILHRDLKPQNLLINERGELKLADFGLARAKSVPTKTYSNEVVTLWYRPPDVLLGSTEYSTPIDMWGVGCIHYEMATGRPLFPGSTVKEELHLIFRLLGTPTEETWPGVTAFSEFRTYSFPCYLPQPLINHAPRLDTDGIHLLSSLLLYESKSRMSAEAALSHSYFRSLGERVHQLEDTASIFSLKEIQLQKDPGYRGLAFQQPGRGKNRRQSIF
# NUAK1 (human) = NUAK1 (human) (UniProt O60285)
# MAP4K5 (human) = MAP4K5 (human) (UniProt Q9Y4K4)
# RPS6KA2 KD1 (human) = RPS6KA2 KD1 (human) (UniProt Q15349)
# NLK (human) = NLK (human) (UniProt Q9UBE8)
# Sequence of NLK (human) (Q9UBE8 whole entry, looked up): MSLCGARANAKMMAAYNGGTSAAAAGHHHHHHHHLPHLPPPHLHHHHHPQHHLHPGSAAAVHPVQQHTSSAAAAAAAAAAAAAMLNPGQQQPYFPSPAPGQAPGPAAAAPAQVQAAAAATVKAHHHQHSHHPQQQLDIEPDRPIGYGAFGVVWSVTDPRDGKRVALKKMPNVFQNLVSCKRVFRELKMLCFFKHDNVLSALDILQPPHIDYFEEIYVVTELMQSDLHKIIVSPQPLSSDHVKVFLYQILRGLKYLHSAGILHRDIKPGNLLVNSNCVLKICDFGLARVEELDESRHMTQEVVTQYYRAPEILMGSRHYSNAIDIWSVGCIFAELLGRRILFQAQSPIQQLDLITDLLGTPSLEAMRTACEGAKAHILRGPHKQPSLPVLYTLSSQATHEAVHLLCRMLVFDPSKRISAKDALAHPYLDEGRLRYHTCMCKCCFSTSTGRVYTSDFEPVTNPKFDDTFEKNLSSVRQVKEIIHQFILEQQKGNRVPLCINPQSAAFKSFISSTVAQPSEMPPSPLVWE
# CHUK (human) = CHUK (human) (UniProt O15111)
# PTK2B (human) = PTK2B (human) (UniProt Q14289)
# EPHA6 (human) = EPHA6 (human) (UniProt Q9UF33)
# PRKCD (human) = PRKCD (human) (UniProt Q05655)
# MUSK (human) = MUSK (human) (UniProt O15146)
# PRKD1 (human) = PRKD1 (human) (UniProt Q15139)
# AXL (human) = AXL (human) (UniProt P30530)
# EPHB2 (human) = EPHB2 (human) (UniProt P29323)
# Sequence of EPHB2 (human) (P29323 whole entry, looked up): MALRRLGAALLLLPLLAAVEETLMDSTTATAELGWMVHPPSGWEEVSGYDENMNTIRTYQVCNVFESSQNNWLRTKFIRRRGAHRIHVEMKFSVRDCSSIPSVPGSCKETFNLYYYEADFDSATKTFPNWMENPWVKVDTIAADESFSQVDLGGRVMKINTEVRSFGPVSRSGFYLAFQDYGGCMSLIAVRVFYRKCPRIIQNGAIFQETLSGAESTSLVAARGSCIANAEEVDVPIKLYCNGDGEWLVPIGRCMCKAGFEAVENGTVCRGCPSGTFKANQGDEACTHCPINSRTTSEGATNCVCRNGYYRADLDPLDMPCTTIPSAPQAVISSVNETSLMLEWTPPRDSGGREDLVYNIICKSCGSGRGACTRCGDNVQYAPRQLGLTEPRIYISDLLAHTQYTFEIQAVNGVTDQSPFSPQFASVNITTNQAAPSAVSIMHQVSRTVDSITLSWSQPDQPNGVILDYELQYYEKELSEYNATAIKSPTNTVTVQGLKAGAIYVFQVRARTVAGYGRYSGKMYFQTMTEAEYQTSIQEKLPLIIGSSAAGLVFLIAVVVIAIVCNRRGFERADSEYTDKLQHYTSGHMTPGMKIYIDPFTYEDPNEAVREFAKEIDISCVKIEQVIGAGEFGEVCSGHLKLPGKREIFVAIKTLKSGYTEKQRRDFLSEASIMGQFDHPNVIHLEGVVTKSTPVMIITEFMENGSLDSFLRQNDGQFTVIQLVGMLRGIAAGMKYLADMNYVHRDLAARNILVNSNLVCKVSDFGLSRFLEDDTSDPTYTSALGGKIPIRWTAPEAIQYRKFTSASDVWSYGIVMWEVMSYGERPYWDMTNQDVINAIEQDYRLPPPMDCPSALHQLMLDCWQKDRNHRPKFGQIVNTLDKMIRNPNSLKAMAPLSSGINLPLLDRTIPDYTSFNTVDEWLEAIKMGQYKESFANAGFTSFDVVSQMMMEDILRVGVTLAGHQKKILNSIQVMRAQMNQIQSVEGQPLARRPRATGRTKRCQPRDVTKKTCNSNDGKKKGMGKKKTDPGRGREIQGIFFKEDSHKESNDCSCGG
# LYN (human) = LYN (human) (UniProt P07948)
# STK25 (human) = STK25 (human) (UniProt O00506)
# PRKD3 (human) = PRKD3 (human) (UniProt O94806)
# CDC2L2 (human) = CDC2L2 (human) (UniProt Q9UQ88)
# PDGFRB (human) = PDGFRB (human) (UniProt P09619)
# EPHA3 (human) = EPHA3 (human) (UniProt P29320)
# [1] = biological target: TYK2 JH1 catalytic (human) (UniProt P29597)
# GAK (human) = GAK (human) (UniProt O14976)
# Sequence of AKT1 (human) (P31749 whole entry, looked up): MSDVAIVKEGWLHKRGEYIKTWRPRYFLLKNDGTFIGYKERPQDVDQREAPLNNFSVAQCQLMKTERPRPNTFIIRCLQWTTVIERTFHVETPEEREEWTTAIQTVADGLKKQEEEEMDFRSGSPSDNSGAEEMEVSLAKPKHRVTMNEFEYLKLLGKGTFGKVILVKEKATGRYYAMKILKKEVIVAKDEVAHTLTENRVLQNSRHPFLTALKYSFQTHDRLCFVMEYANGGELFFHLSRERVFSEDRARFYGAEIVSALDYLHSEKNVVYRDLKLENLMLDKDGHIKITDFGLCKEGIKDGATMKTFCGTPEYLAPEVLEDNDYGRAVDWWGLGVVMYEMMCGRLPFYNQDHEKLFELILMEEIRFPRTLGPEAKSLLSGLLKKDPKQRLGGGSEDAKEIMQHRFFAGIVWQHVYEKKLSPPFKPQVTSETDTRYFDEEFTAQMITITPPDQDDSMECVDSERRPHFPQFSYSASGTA
smiles,measurement,setting,value
CNC(=O)c1cc(Oc2ccc(NC(=O)Nc3ccc(Cl)c(C(F)(F)F)c3)cc2)cc[n+]1[O-],per cent of control,AKT1 (human),100%
same,per cent of control,CDK11B (human),100%
same,per cent of control,SRPK2 (human),73%
same,per cent of control,CSNK1A1L (human),100%
same,per cent of control,PHKG2 (human),100%
same,per cent of control,RET (human),0%
same,per cent of control,TNK1 (human),6.6%
same,per cent of control,FLT3 (human),0.1%
same,per cent of control,CDK19 (human),0.35%
same,per cent of control,CDK3 (human),13%
same,per cent of control,ACVR1 (human),100%
same,per cent of control,PIK3C2B (human),100%
same,per cent of control,PRPF4B (human),99%
same,per cent of control,DYRK2 (human),26%
same,per cent of control,MAP2K5 (human),0.1%
same,per cent of control,CDK9 (human),73%
same,per cent of control,RIOK3 (human),73%
same,per cent of control,LATS1 (human),53%
same,per cent of control,ZAP70 (human),77%
same,per cent of control,PHKG1 (human),77%
same,per cent of control,ERBB2 (human),100%
same,per cent of control,CDK18 (human),26%
same,per cent of control,NUAK1 (human),100%
same,per cent of control,MAP4K5 (human),0.45%
same,per cent of control,RPS6KA2 KD1 (human),43%
same,per cent of control,NLK (human),11%
same,per cent of control,CHUK (human),6.5%
same,per cent of control,PTK2B (human),91%
same,per cent of control,EPHA6 (human),6.6%
same,per cent of control,PRKCD (human),100%
same,per cent of control,MUSK (human),0.2%
same,per cent of control,PRKD1 (human),63%
same,per cent of control,AXL (human),1.8%
same,per cent of control,EPHB2 (human),19%
same,per cent of control,LYN (human),11%
same,per cent of control,STK25 (human),32%
same,per cent of control,PRKD3 (human),83%
same,per cent of control,CDC2L2 (human),99%
same,per cent of control,PDGFRB (human),0%
same,per cent of control,EPHA3 (human),4%
same,per cent of control,[1],100%
same,per cent of control,GAK (human),70%
CNC(=O)c1cc(Oc2ccc(NC(=O)Nc3ccc(Cl)c(C(F)(F)F)c3)cc2)ccn1,per cent of control,AKT1 (human),100%
same,per cent of control,CDK11B (human),93%
same,per cent of control,SRPK2 (human),100%
same,per cent of control,CSNK1A1L (human),100%
same,per cent of control,PHKG2 (human),100%
same,per cent of control,RET (human),0%
same,per cent of control,TNK1 (human),14%
same,per cent of control,FLT3 (human),0.05%
same,per cent of control,CDK19 (human),0.7%
same,per cent of control,CDK3 (human),41%
same,per cent of control,ACVR1 (human),100%
same,per cent of control,PIK3C2B (human),100%
same,per cent of control,PRPF4B (human),94%
same,per cent of control,DYRK2 (human),60%
same,per cent of control,MAP2K5 (human),0.35%
same,per cent of control,CDK9 (human),62%
same,per cent of control,RIOK3 (human),88%
same,per cent of control,LATS1 (human),79%
same,per cent of control,ZAP70 (human),91%
same,per cent of control,PHKG1 (human),73%
same,per cent of control,ERBB2 (human),100%
same,per cent of control,CDK18 (human),57%
same,per cent of control,NUAK1 (human),74%
same,per cent of control,MAP4K5 (human),1.5%
same,per cent of control,RPS6KA2 KD1 (human),61%
same,per cent of control,NLK (human),19%
same,per cent of control,CHUK (human),93%
same,per cent of control,PTK2B (human),99%
same,per cent of control,EPHA6 (human),1.6%
same,per cent of control,PRKCD (human),100%
same,per cent of control,MUSK (human),0%
same,per cent of control,PRKD1 (human),100%
same,per cent of control,AXL (human),5.4%
same,per cent of control,EPHB2 (human),12%
same,per cent of control,LYN (human),11%
same,per cent of control,STK25 (human),100%
same,per cent of control,PRKD3 (human),70%
same,per cent of control,CDC2L2 (human),77%
same,per cent of control,PDGFRB (human),0%
same,per cent of control,EPHA3 (human),4%
same,per cent of control,[1],100%
same,per cent of control,GAK (human),62%

# From the kinase profiling compilation of Christmann-Franck et al. (2016)
